The text below walks through data of patent US9120776B2, “Condensed heterocyclic compound” (Takeda Pharmaceutical Company Limited, priority 2011, dated 2015).

SMILES strings stand for the structures. Read-outs that look alike come from different tables or passages of the source.

The subject of one assay is Th17 cells. In words: Mouse Th17 Cell Differentiation Test (IL-17A in culture supernatant, ELISA). It counts as cell-based. To be noted: inhibitory rate at 10 μM of test compound, mouse CD4 positive naive T cells, 4 days, IL-17A by ELISA; for inhibition at 10 µM: 96 h. On the procedure: CD4 positive naive T cells were collected from the spleen cells of BALB/c mice (female, 8-11w, Charles River Laboratories Japan, Inc.) using CD4+CD62L+ T Cell Isolation kit II (Miltenyi Biotec). The CD4 positive naive T cells in a 96 well plate (3×10^5 cells/well) were stimulated (37° C. for culture) with anti-mouse CD3ε antibody (Bio X cell) (10 μg/mL, solid phase) and anti-CD28 antibody (Bio X cell) (5 μg/mL) for 4 days in the presence of anti-IFN-γ antibody (BioLegend), anti-IL-4 antibody (BioLegend), anti-IL-2 antibody (BioLegend), IL-6, TGF-β and IL-23 to differentiate into Th17 cells. The compound was dissolved in DMSO and then added thereto. The cells were cultured under these conditions for 4 days, and differentiation of the Th17 cells was evaluated by using the concentration of IL-17A, which was measured by ELISA, in the culture supernatant obtained by centrifugation.
A general note: In an ELISA, binding on a coated surface is turned into a signal by an enzyme label.

Assay [1] deals with T1, RORγt (Homo sapiens, UniProt P51449).
T1 sequence (P51449 1-497 isoform P51449-2): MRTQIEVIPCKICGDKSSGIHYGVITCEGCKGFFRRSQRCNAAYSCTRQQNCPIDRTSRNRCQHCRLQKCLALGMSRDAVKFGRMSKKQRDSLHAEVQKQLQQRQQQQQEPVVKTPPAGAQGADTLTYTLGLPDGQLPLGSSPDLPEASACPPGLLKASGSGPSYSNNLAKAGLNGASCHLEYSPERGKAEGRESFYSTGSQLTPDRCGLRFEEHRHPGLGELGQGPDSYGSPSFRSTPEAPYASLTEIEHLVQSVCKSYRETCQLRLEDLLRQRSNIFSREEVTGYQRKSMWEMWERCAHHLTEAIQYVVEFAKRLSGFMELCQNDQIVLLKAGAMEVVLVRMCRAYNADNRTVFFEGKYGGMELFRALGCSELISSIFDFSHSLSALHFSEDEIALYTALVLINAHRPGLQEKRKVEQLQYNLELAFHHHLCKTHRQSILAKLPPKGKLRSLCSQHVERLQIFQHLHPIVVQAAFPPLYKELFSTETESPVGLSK
In words: Jurkat Reporter Test (human IL-17 ROR response element luciferase, RORγt vector). The format is cell-based. To be noted: read-out: inhibitory rate (%). The protocol: The Jurkat cells used for the reporter test were cultured in a culture medium (RPMI (Invitrogen), 10% FCS (AusGeneX), 100 U/mL penicillin, 100 μg/mL streptomycin). On the day of the test, 4×10^7 cells were recovered by a centrifugal operation (1000 rpm, 5 min.) and suspended in PBS (phosphate buffered saline) (Invitrogen). Thereafter, the cells were recovered again by a centrifugal operation, and suspended in 2 mL of R buffer (NEON transfection kit, Invitrogen). […] Gene transfer was performed by Electroporation apparatus (NEON, Invitrogen) under the conditions of pulse voltage 1350 V, interval 10 milliseconds, number of times 3. The cells after gene transfer were suspended in 40 mL of a reaction medium (RPMI, 10% Lipid reduced FCS (HyClone), 10 mM HEPES (pH 7.5), 100 U/mL penicillin, 100 μg/mL streptomycin, 5 μM lovastatin), and plated in a 96 well plate by 90 μL each. A test compound diluted with the reaction medium was added by 10 μL each, and the cells were cultured overnight in an incubator. Bright-Glo (Promega) was added by 100 μL each, and the mixture was stirred at room temperature for 10 min, and the luminescence level was measured by Envision (PerkinElmer).

Assay [2] concerns the target T1, RORγt. The assay is described as follows: RORγt Binding Test (TR-FRET, fluorescent-labeled cholesterol). Also noted: histidine tag (implied by the Histidine Detection Kit). To be noted: binding inhibitory rate of fluorescent-labeled cholesterol to RORγt at test compound 1 μM. On the procedure: The binding activity of the test compound to RORγt was measured by a time resolved fluorescence resonance energy transfer method (TR-FRET) utilizing histidine-tagged RORγt, fluorescent-labeled cholesterol (BODIPY-cholesterol, AVIVA) and terbium-labeled anti-histidine tag antibody (Invitrogen). First, a test compound diluted with an assay buffer (20 mM Tris-HCl (pH 7.5), 100 mM NaCl, 1 mM DTT, 0.1% BSA) was added to a 384 well plate by 3 μL each. Then, RORγt diluted with an assay buffer to 240 nM was added by 3 μL each, after which fluorescent-labeled cholesterol diluted with the assay buffer to 12 μM was added by 3 μL each, and the mixture was stood at room temperature for 20 min. Thereafter, a terbium-labeled anti-histidine tag antibody diluted with the assay buffer to 8 nM was added by 3 μL each. The mixture was stood at room temperature for 20 min, and fluorescence intensity (excitation wavelength 320 nm, fluorescence wavelength 520 nm, delay time 100 microseconds) was measured by Envision (PerkinElmer).
On the technique in general: In TR-FRET formats the signal depends on donor and acceptor labels being close together.

Assay [3] concerns the target T1, RORγt. In words: Cofactor Recruitment Test (Alpha Screen, biotinylated SRC-1 peptide). The format is biochemical. Details: histidine tag (implied by the Histidine Detection Kit). To be noted: signal value inhibitory rate at test compound 1 μM. The protocol:
Cofactor recruitment test was performed by Alpha Screen (Histidine Detection Kit, PerkinElmer) method. First, a test compound diluted with an assay buffer (50 mM Tris-HCl (pH 7.5), 50 mM KCl, 1 mM DTT, 0.1% BSA) was added to a 384 well plate by 5 μL each. […] The mixture was stood in a dark place for 1 hr, and the signal value was measured by Envision (PerkinElmer).

Another assay deals with human PBMC. In words: IL17 Production Test in Human PBMC. To be noted: 72 h, inhibitory rate at 10 μM of test compound, anti-CD3/CD28 stimulation, 3 days, IL-17A by ELISA. The format is cell-based. The protocol: Peripheral blood mononuclear cells (PBMC) collected from human peripheral blood by a density gradient centrifugation method were stimulated by Dynabeads (registered trade mark; anti-CD3/CD28 antibody) and cultured at 37° C. for 3 days. The compound was dissolved in DMSO and then added thereto. After culture for 3 days under such conditions, the concentration of IL-17A in the culture supernatant obtained by centrifugation was measured by ELISA to evaluate the effect of the compound on IL-17 production.

Setting [4] is: luminescence level inhibitory rate at test compound 3 μM, Jurkat cells.

With `CCn1c2ccccc2c2cc(NC(=O)CC(C)CC(=O)Nc3ccc(C#N)c(Cl)c3)ccc21` (stereo not shown) [Example 26, N-(3-chloro-4-cyanophenyl)-N′-(9-ethyl-9H-carbazol-3-yl)-3-methylpentanediamide], the “inhibitory rate (%)” value in the assay on Th17 cells (10 µM) is recorded as 96.1%.

With `CCn1c2ccccc2c2cc(NC(=O)CSCC(=O)Nc3ccc(C#N)cc3)ccc21` [Example 24, 2-({2-[(4-cyanophenyl)amino]-2-oxoethyl}sulfanyl)-N-(9-ethyl-9H-carbazol-3-yl)acetamide], the inhibition at 3 µM on RORγt [1] (setting [4]) worked out at 100%. For the same compound, the inhibition at 10 µM in the assay with Th17 cells was determined as 96%. For the same compound, the values for the inhibition at 1 µM on RORγt [2] and against RORγt [3] were 98.9% and 101%, respectively.

As to `CCn1c2ccccc2c2cc(NC(=O)CC(C)CC(=O)Nc3ccc(C#N)cn3)ccc21` (stereo not shown) [Example 50, N-(5-cyanopyridin-2-yl)-N′-(9-ethyl-9H-carbazol-3-yl)-3-methylpentanediamide], at RORγt [1] (setting [4]), the inhibition at 3 µM came to 110%. The inhibition at 1 µM at RORγt [2] is 88.8%; on RORγt [3], 103%.

In the case of `CCn1c2ccccc2c2cc(NC(=O)CC(C)CC(=O)Nc3ccc(C#N)c(OC)c3)ccc21` (stereo not shown) [Example 41, N-(4-cyano-3-methoxyphenyl)-N′-(9-ethyl-9H-carbazol-3-yl)-3-methylpentanediamide], the inhibition at 3 µM on RORγt [1] (setting [4]) amounted to 96.4%. Further, the inhibition at 1 µM amounted to 93.4% on RORγt [2] and 100% on RORγt [3].

Consider `CCn1c2ccccc2c2cc(NC(=O)C[S+]([O-])CC(=O)Nc3ccc(C#N)cc3)ccc21` (stereo not shown) [Example 34, 2-((2-((4-cyanophenyl)amino)-2-oxoethyl)sulfinyl)-N-(9-ethyl-9H-carbazol-3-yl)acetamide], for which the inhibition at 3 µM at RORγt [1] (setting [4]) was 82.7%. Further, in the assay with Th17 cells, the inhibition at 10 µM is 96.3%. In addition, the inhibition at 1 µM on RORγt [2] was 94.6%; against RORγt [3], 103%.

As to `CCn1c2ccccc2c2cc(NC(=O)C(C)CCC(=O)Nc3ccc(C#N)c(Cl)c3)ccc21` (stereo not shown) [Example 42, N^5-(3-chloro-4-cyanophenyl)-N^1-(9-ethyl-9H-carbazol-3-yl)-2-methylpentanediamide], the inhibition at 3 µM on RORγt [1] (Jurkat) worked out at 104%. For the same compound, the inhibition at 1 µM on RORγt [2] and at RORγt [3] was 101% throughout.

As to `CCn1c2ccccc2c2cc(NC(=O)CC(CC(=O)Nc3ccc(C#N)c(Cl)c3)c3ccccc3)ccc21` (stereo not shown) [Example 39, N-(3-chloro-4-cyanophenyl)-N′-(9-ethyl-9H-carbazol-3-yl)-3-phenylpentanediamide], at RORγt [1] (Jurkat), the inhibition at 3 µM worked out at 93.2%. Moreover, the inhibition at 1 µM came to 91.4% on RORγt [2] and 102% at RORγt [3].

On to `CCn1c2ccccc2c2cc(NC(=O)CC(C)CC(=O)Nc3ccc(C#N)c(Cl)c3)ccc21` (stereo not shown) [Example 25, N-(3-chloro-4-cyanophenyl)-N′-(9-ethyl-9H-carbazol-3-yl)-3-methylpentanediamide], for which the inhibition at 10 µM in the assay on Th17 cells (Mus musculus, CD4 positive) was determined as 96.1%.

In the case of `CCn1c2ccccc2c2cc(NC(=O)CC(C)CCOc3ccc(C#N)c(Cl)c3)ccc21` (stereo not shown) [Example 38, 5-(3-chloro-4-cyanophenoxy)-N-(9-ethyl-9H-carbazol-3-yl)-3-methylpentanamide], the inhibition at 3 µM on RORγt [1] (setting [4]) was 99.4%. The inhibition at 1 µM on RORγt [2] was 91.9%; at RORγt [3], 102%.

Consider `CCn1c2ccccc2c2cc(NC(=O)CC(C)CC(=O)Nc3ccc(C#N)nc3)ccc21` (stereo not shown) [Example 49, N-(6-cyanopyridin-3-yl)-N′-(9-ethyl-9H-carbazol-3-yl)-3-methylpentanediamide], for which the inhibition at 3 µM on RORγt [1] (setting [4]) was 109%. For the same compound, the values for the inhibition at 1 µM on RORγt [2] and against RORγt [3] were 93.9% and 104%, respectively.

For the compound `CCn1c2ccccc2c2cc(NC(=O)CC(C)CCOc3ccc(C#N)c(C#N)c3)ccc21` (stereo not shown) [Example 55, 5-(3,4-dicyanophenoxy)-N-(9-ethyl-9H-carbazol-3-yl)-3-methylpentanamide], the inhibition at 3 µM at RORγt [1] (setting [4]) amounted to 102%. The values for the inhibition at 1 µM on RORγt [2] and at RORγt [3] were 82.2% and 104%, respectively.

As to `CCn1c2ccccc2c2cc(NC(=O)CC(C)CCOc3ccc(C#N)c(C)c3)ccc21` (stereo not shown) [Example 44, 5-(4-cyano-3-methylphenoxy)-N-(9-ethyl-9H-carbazol-3-yl)-3-methylpentanamide], at RORγt [1] (setting [4]), the inhibition at 3 µM worked out at 77.8%. Besides, the results for the inhibition at 1 µM at RORγt [2] and on RORγt [3] were 62.9% and 98.7%, respectively.

Regarding `CCn1c2ccccc2c2cc(NC(=O)CC(C)CC(=O)Nc3ccc(C#N)cc3)ccc21` (stereo not shown) [Step 1 of Example 15, N^1-(4-cyanophenyl)-N^5-(9-ethyl-9H-carbazol-3-yl)-3-methylpentanediamide], the inhibition at 10 µM in the assay with Th17 cells was found to be 93.2%.

As for `CCn1c2ccccc2c2cc(NC(=O)C3CCC3C(=O)Nc3ccc(C#N)c(Cl)c3)ccc21` (stereo not shown) [Example 40, N-(3-chloro-4-cyanophenyl)-N′-(9-ethyl-9H-carbazol-3-yl)cyclobutane-1,2-dicarboxamide], the inhibition at 3 µM at RORγt [1] (Jurkat) came out at 99.3%. Further, the inhibition at 1 µM is 96.3% on RORγt [2] and 102% on RORγt [3].

Take `CCn1c2ccccc2c2cc(NC(=O)CCC(C)C(=O)Nc3ccc(C#N)c(Cl)c3)ccc21` (stereo not shown) [Example 43, N^1-(3-chloro-4-cyanophenyl)-N^5-(9-ethyl-9H-carbazol-3-yl)-2-methylpentanediamide]: the inhibition at 3 µM on RORγt [1] (Jurkat) was found to be 104%. In addition, the inhibition at 1 µM amounted to 100% at RORγt [2] and 102% against RORγt [3].

As to `CCn1c2ccccc2c2cc(C(=O)NCC(C)CC(=O)Nc3ccc(C#N)c(Cl)c3)ccc21` (stereo not shown) [Example 48, N-{4-[(3-chloro-4-cyanophenyl)amino]-2-methyl-4-oxobutyl}-9-ethyl-9H-carbazole-3-carboxamide], the inhibition at 3 µM at RORγt [1] (Jurkat) is 115%. Besides, the inhibition at 10 µM was 97.6% with human PBMC and 96.9% with Th17 cells (Mus musculus, CD4 positive). The results for the inhibition at 1 µM on RORγt [2] and on RORγt [3] were 104% and 106%, respectively.
